1 compound from paper PMC6934184, “Selective DNA-PKcs inhibition extends the therapeutic index of localized radiotherapy and chemotherapy” (The Journal of Clinical Investigation, 2019) can be followed below.

The test deals with T1, MAP2K1 (MEK1) (Homo sapiens, UniProt Q02750).
T1 construct: purchased Thermo Fisher Scientific (Life Technologies) SelectScreen
Briefly: SelectScreen Z'LYTE. The test is classed as biochemical. The following applies: ATP 100 µM. The procedure, abridged:
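NU5455 was profiled across the SelectScreen Broad panel of kinase activity and binding assays. Z'LYTE reactions such as CSF1R ran at apparent Km ATP, while the Adapta CAMK1 assay used ATP listed as 10. Values are given as percent.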

T1 sequence (Q02750 whole entry): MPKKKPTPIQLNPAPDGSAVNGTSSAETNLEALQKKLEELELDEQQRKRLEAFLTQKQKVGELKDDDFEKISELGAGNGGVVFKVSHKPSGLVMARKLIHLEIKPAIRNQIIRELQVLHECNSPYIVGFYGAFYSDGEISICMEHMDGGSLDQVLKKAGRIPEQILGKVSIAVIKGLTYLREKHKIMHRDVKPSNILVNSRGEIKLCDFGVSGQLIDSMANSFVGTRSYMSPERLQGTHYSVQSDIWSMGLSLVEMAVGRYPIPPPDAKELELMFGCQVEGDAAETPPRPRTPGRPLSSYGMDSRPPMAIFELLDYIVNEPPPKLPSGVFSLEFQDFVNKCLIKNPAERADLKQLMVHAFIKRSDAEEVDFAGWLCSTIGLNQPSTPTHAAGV

In general, inhibition refers to the share of the control response that was lost under treatment. A higher inhibition goes with a response far below the control. As to `CN(C(=O)CN1CCOCC1)c1ccc2sc3c(-c4cccc5c(=O)cc(N6CC7CCC(C6)O7)oc45)cccc3c2c1` [NU5455], the inhibition at 1 µM turned out to be 8.8%.
